# In patent US20160279110A1, “COMPOSITIONS AND METHODS FOR TREATING CANCER” (UNIVERSITY OF ROCHESTER, priority 2015, published 2016):
# Read-outs that look alike come from different tables or passages of the source.
# Assays:
# [1] = tested on: NMD; experiment: NMD reporter mRNA levels (β-Gl Ter, GPx1 Ter) by RT-qPCR in HeLa cells exposed to NMDI-1; assay type: cell-based, human
# Description: Norm encodes a PTCfree version of GPx1 mRNA, whereas Ter encodes mRNA harboring a PTC at codon 46. Cells were re-plated 16 h after transfection at equivalent densities and exposed 24 h later to the indicated concentration of NMDI-1 or, as a positive control for NMD inhibition, cycloheximide (CHX). The levels of β-Gl reporter mRNAs were normalized to the level of the MUP reference mRNA, and the normalized levels of β-Gl Ter mRNA are presented as a percentage of the normalized level of β-Gl Norm mRNA. FIG. 16b is essentially as in a, except GPx1Ter mRNA was analyzed. FIG. 16c is essentially as in b, except MCF7 cells were used. FIG. 16d is essentially as in b, except MCF7 cells were used.
# Cells were homogenized, and RNA was purified using RNeasy mini kits (Qiagen). To ensure linearity of both reverse transcription (RT) and qPCR analyses, 17 standard concentrations were constructed using two-fold serial dilutions of total-cell RNA, beginning with 2 μg. Experimental sample input was 200 ng of RNA. RT was conducted using Superscript III (Invitrogen) according to manufacturer's directions and 100 ng of random hexamer (Invitrogen) in a 20 μl reaction volume. Thermal cycling was as follows: 25° C. for 5 min; 42° C. for 60 min; 50° C. for 60 min; and 75° C. for 10 min. Reactions were diluted to a final volume of 80 μl with water and used for qPCR.
# qPCR was conducted using FAST SYBR green master mix (ABI; Foster City, Calif.) according to manufacturer's directions. Cycling was done using a 7500 FAST Real Time machine (ABI) with default conditions, and thermal denaturation curves were generated for each run. Primer sequences were as follows, with mRNA primers sets containing at least one primer spanning an exon-exon junction, and pre-mRNA primer sets containing at least one primer that hybridizes to intronic sequences. Primers for Gl mRNA, GPx1 mRNA and MUP mRNA were described in Kurosaki et al.
# Therefore, a small-molecule inhibitor of NMD, NMDI-1 (FIG. 8c), that interferes with the interaction between UPF1 and SMG5 was utilized. Application of NMDI-1 and the consequential attenuation of NMD may more fully replicate the complete inhibition of NMD mediated by the UPF1 CP generation explored here as well as UPF1 dephosphorylation and the generation of additional UPF1 CPs seen with doxorubicin (FIG. 1c).
# [2] = tested on: NMD; experiment: NMD reporter mRNA levels by RT-qPCR in MCF7 cells exposed to NMDI-1; assay type: cell-based, human
# [3] = tested on: HeLa cells; parameters: reduction in cell viability relative to doxorubicin alone: dose or concentration left out as unconfirmed
# Description: Viable cells were quantitated using a Cell Titer Glo assay. […] (d) HeLa cells were plated as in b and exposed to one of three treatments 24 h later—the indicated doxonibicin concentration is provided for 16 h either alone (left histogram) or in the presence of 10 μM NMDI-1 (middle histogram). Alternatively, cells were preincubated with 10 M NMDI-1 for 8 h, washed three times and incubated with the indicated concentrations of doxorubicin for 16 h in the absence of NMDI-1. Viable cells were quantitated as in b. Error bars=S.E.M, *=P<0.05 relative to doxorubicin alone treatment using the Student's t-test. n=4 biological replicates.
# Cells were plated in white opaque 96-well plates using multichannel pipettors for accuracy and treated as described in the figure legends. CellTiter-Glo luminescent assays (Promega) were performed according to manufacturer's directions. Data were collected using a SpectraMax M2 plate reader.
# First, HeLa cells were challenged with various concentrations of doxorubicin alone. Second, cells were continuously co-incubated for 16 h with doxorubicin and NMDI-1. Third, a transient pulse of NMDI-1 was applied for 8 h, cells were washed to remove NMDI-1, and doxorubicin was then applied.
# [4] = NMDI-1 at a concentration of 10
structure (smiles),measurement,setting,value
Cc1c2ccnc(Cl)c2c(C)c2c1[nH]c1ncccc12 [NMDI-1],inhibition of NMD in HeLa cells,[1],effective in HeLa cells
same,raising the level of PTC-bearing glutathione peroxidase 1 (GPx1) mRNA,[1]; [4],~1.6 fold
same,raising the level of β-Gl Ter mRNA,[1]; [4],~3.8 fold
same,inhibition of NMD in HeLa cells,[1]; listed as NMD-1,potent inhibitor of NMD
same,effect on NMD in MCF7 cells,[2],no effect
same,cell viability at sub-lethal doxorubicin,"[3]; 0.5 μM doxorubicin, doxorubicin alone, co-treatment or pre-treatment with NMDI-1",none of the treatments significantly affected viability
same,reduction in cell viability relative to doxorubicin alone,"[3]; NMDI-1 pulse 8 h, washed, then doxorubicin 16 h",~2.5 fold
same,cell viability relative to doxorubicin treatment alone,[3]; continuous co-incubation 16 h with doxorubicin and NMDI-1,statistically significant decreases in cell viability
